Experimental findings from ChEMBL document CHEMBL1147238, “Komodoquinone A, a novel neuritogenic anthracycline, from marine Streptomyces sp. KS3” (J Nat Prod, 2003) are described below.

Structures are written as SMILES. Calls of active or inactive are those of the source. The calls are words filed in the database; no cut-off is given here.

For test [1], the system named is N2a. Put plainly: Neuritogenic activity in mouse Neuro2a cells assessed as morphological changes at 1 ug/mL after 24 or 48 hrs. Format: functional, cell-based.
Test [2] has as its system N2a. Put plainly: Neuritogenic activity in mouse Neuro2a cells assessed as morphological changes at 3 ug/mL after 24 or 48 hrs. It is filed as functional, cell-based.

Consider `C[C@@H]1O[C@@H](Oc2cccc3c2C(=O)c2c(O)c4c(c(O)c2C3=O)C[C@](C)(O)C[C@@H]4O)[C@@H](O)[C@H](N(C)C)[C@@H]1O`, for which, in the test with N2a [1], the outcome was Active. On to `COc1cccc2c1C(=O)c1c(O)c3c(c(O)c1C2=O)C[C@@](O)(C(=O)CO)C[C@@H]3O[C@H]1C[C@H](N)[C@H](O)[C@H](C)O1`, for which the outcome with N2a [2] was inactive.
